Experimental findings from patent US11952365B2, “Anti-viral compounds” (Aligos Therapeutics, Inc., priority 2020, dated 2024) are described below.

Data set [1] has as its system human beta-coronavirus OC43. The experiment in a line: microbe, parasite or virus in culture. In kind it is cell-based. The following applies: Betacoronavirus 1, OC43, HeLa, 144 h.
Data set [2] addresses 3CLpro (Severe acute respiratory syndrome coronavirus 2, UniProt P0DTD1). The experiment in a line: SARS-CoV-2 3CLpro protease assay (duplex, SAMDI-MS). The class given is biochemical. Also noted: For the duplex assay, 3CLpro and HRV3C was added. The following applies: 30 mins preincubation, class symbols.
The target of data set [3] is HRV3C (Human rhinovirus 14, UniProt P03303). The experiment in a line: HRV3C protease assay (duplex, SAMDI-MS). In kind it is biochemical, HRV. The following applies: 30 mins preincubation. An outline of the steps:
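Compounds are preincubated 30 min with the protease pair before substrate addition, and cleavage proceeds 30 min at room temperature. Product peptides are measured by SAMDI-MS relative to internal standards, with IC50 obtained from a four-parameter fit.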

A short description of data set [4]: in vitro. The following applies: African green monkey, VeroE6 + CP (CC50), Vero E6-eGFP cells with CP-100356, absence of virus, MTS.
For data set [5], the system named is SARS-CoV-2-GHB-03021/2020. The experiment in a line: SARS-CoV-2 Infection Model in Huh7 Cells. The class given is cell-based. The following applies: Severe acute respiratory syndrome coronavirus 2, Huh-7, 96 h, SARS-CoV-2, day 4 p.i., MTS.
Data set [6] in a line: in vitro. The settings on record: human.
In data set [7] the target is T1, human cathepsin L (Homo sapiens, UniProt P07711).
T1 construct: purchased R&D Systems
The experiment in a line: cathepsin L assay. The following applies: 10 pM human cathepsin L, Z-FR-AMC 2 μM, class symbols. The class given is biochemical. The method in brief: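 Reactions began by adding 2 μM (final) Z-FR-AMC substrate to 10 pM human cathepsin L that had been preincubated 30 min with inhibitor. Kinetic AMC fluorescence at 355/460 nm over 30 min at 2-min intervals; four-parameter fitting gave IC50 values.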

The subject of data set [8] is SARS-CoV-2-GHB-03021/2020. The experiment in a line: microbe, parasite or virus in culture. In kind it is cell-based. The following applies: Severe acute respiratory syndrome coronavirus 2, Vero C1008, 96 h; read-out: VeroE6 + CP (EC50).
A short description of data set [9]: Cytotoxicity plates without OC43 virus (cell-titer-glo). The class given is cell-based, human. The following applies: human; HeLa cells without OC43 virus, class symbols. An outline of the steps:
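Run as a virus-free counterpart of the OC43 cytopathic-effect assay. Attached HeLa cells received compound dilutions in EMEM with 2% FBS and were kept 6 days at 33 °C. Cell viability was then measured by CellTiter-Glo luminescence.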

The mark [10] stands for this setting: OC43 in HeLa cells, 6 days at 33° C., class symbols, read-out: EC50.
The mark [11] stands for this setting: 3CLpro, read-out: SARS-Cov-2 IC50.
Setting [12] is: HRV3C, class symbols, read-out: HRV IC50.

Read-outs that look alike come from different tables or passages of the source.

Take `O=C1NCC[C@H]1C[C@H](NC(=O)[C@@H]1[C@H]2CCC[C@H]2CN1C(=O)c1cc2c(OCc3ccccc3)cccc2[nH]1)C(=O)CO` [Compound 133, (1S,3aR,6aS)-2-[4-(benzyloxy)-1H-indole-2-carbonyl]-N-[(2S)-4-hydroxy-3-oxo-1-[(3S)-2-oxopyrrolidin-3-yl]butan-2-yl]-hexahydro-1H-cyclopenta[c]pyrrole-1-carboxamide]: the figures for the EC50 in data set [1] (setting [10]), in data set [5] (class symbols) and in [8] were less than 0.1 µM, less than 1 µM and less than 1 µM, respectively. The concentration for half-maximal inhibition (IC50) was less than 0.02 µM in data set [2] (setting [11]); greater than 10 µM in data set [3] (HRV3C, bound, read-out: HRV IC50); no less than 10 µM in data set [7]. In addition, the CC50 in data set [4] (numeric bounds) and in data set [6] was greater than 50 µM each time. For the same molecule, the CC50 at 6 days in data set [9] was greater than 10 µM.

For `COc1cccc2[nH]c(C(=O)N3C[C@@H]4CCC[C@@H]4[C@H]3C(=O)N[C@@H](C[C@@H]3CCNC3=O)C(=O)C(=O)NCCOc3ccccc3)cc12` [Compound 134], the half-maximal effective concentration (EC50) lay in the range of 0.1 to 1 µM in data set [1] (setting [10]), 1 to 10 µM in [5] (class symbols) and 1 to 10 µM in data set [8]. Further, the IC50 in [2] (setting [11]) is less than 0.02 µM; in data set [3] (setting [12]) it was 2 to 20 µM; in data set [7] it was no less than 10 µM. For the same molecule, the CC50 in [4] (numeric bounds) and in data set [6] was greater than 50 µM each time. Further, in [9], the CC50 at 6 days was greater than 10 µM.

Consider `O=C1NCC[C@H]1C[C@H](NC(=O)[C@@H]1[C@H]2[C@H]3CC[C@H](C3)[C@H]2CN1C(=O)c1cc2c(Cl)cc(Cl)cc2[nH]1)C(=O)CO` [Compound 135, (1S,3aR,4R,7S,7aS)-2-(4,6-dichloro-1H-indole-2-carbonyl)-N—((S)-4-hydroxy-3-oxo-1-((S)-2-oxopyrrolidin-3-yl)butan-2-yl)octahydro-1H-4,7-methanoisoindole-1-carboxamide], for which the 50% effective concentration (EC50) is 0.1 to 1 µM in [1] (setting [10]), less than 1 µM in [5] (class symbols) and less than 1 µM in data set [8]. Besides, the concentration for half-maximal inhibition (IC50) is 0.02 to 0.2 µM in data set [2] (setting [11]); 2 to 20 µM in data set [3] (HRV IC50, HRV3C, class symbols); no less than 10 µM in [7]. Also, the CC50 in data set [4] (class symbols) and in data set [6] was greater than 10 µM each time. Also, in [9], the CC50 at 6 days was greater than 10 µM.

In the case of `O=C1NCC[C@H]1C[C@H](NC(=O)[C@@H]1[C@@H]2[C@H](CN1C(=O)c1cc3c(Cl)cc(Cl)cc3[nH]1)[C@@H]1C=C[C@H]2C1)C(=O)CO` [Compound 136, (1R,2S,3S,6R,7S)-4-(4,6-dichloro-1H-indole-2-carbonyl)-N-[(2S)-4-hydroxy-3-oxo-1-[(3S)-2-oxopyrrolidin-3-yl]butan-2-yl]-4-azatricyclo[5.2.1.0^{2,6}]dec-8-ene-3-carboxamide], the concentration giving a half-maximal response (EC50) in data set [1] (setting [10]) was less than 0.1 µM; in data set [5] (class symbols) it was less than 1 µM; in [8], less than 1 µM. The half-maximal inhibitory concentration (IC50) in data set [2] (setting [11]) is less than 0.02 µM; in [3] (setting [12]) it was 2 to 20 µM; in [7], no less than 10 µM. In addition, the CC50 in data set [4] (numeric bounds) and in data set [6] was greater than 50 µM throughout. In addition, in data set [9], the CC50 at 6 days is greater than 10 µM.

Take `O=C1NCC[C@H]1C[C@H](NC(=O)[C@@H]1[C@H]2CCC[C@H]2CN1C(=O)c1cc2c(Cl)ccc(Oc3ccccc3)c2[nH]1)C(=O)CO` [Compound 137, (1S,3aR,6aS)-2-(4-chloro-7-phenoxy-1H-indole-2-carbonyl)-N-[(2S)-4-hydroxy-3-oxo-1-[(3S)-2-oxopyrrolidin-3-yl]butan-2-yl]-hexahydro-1H-cyclopenta[c]pyrrole-1-carboxamide]: the EC50 in data set [1] (setting [10]) is less than 0.1 µM; in data set [5] (class symbols), less than 1 µM; in data set [8] it was 1 to 10 µM. Besides, the IC50 in [2] (SARS-Cov-2 IC50, 3CLpro) is 0.02 to 0.2 µM; in [3] (HRV IC50, HRV3C, bound), greater than 10 µM; in [7] it was no less than 10 µM. Also, the values for the CC50 in data set [4] (numeric bounds) and in data set [6] were greater than 50 µM and greater than 10 µM, respectively. Also, the CC50 at 6 days in data set [9] was greater than 10 µM.

Consider `O=C1NCC[C@H]1C[C@H](NC(=O)[C@@H]1[C@H]2CCC[C@H]2CN1C(=O)c1cc2c(OC3CC3)cc(Cl)cc2[nH]1)C(=O)CO` [Compound 138, (1S,3aR,6aS)-2-(6-chloro-4-cyclopropoxy-1H-indole-2-carbonyl)-N-[(2S)-4-hydroxy-3-oxo-1-[(3S)-2-oxopyrrolidin-3-yl]butan-2-yl]-hexahydro-1H-cyclopenta[c]pyrrole-1-carboxamide], for which the EC50 was less than 0.1 µM in data set [1] (setting [10]), less than 1 µM in data set [5] (class symbols) and 1 to 10 µM in data set [8]. The IC50 in [2] (setting [11]) is less than 0.02 µM; in data set [3] (setting [12]), 2 to 20 µM; in data set [7], no less than 10 µM. Besides, the CC50 in data set [4] (numeric bounds) and in data set [6] was greater than 50 µM each time. In data set [9], this molecule returned a CC50 at 6 days greater than 10 µM.

For `O=C1NCC[C@H]1C[C@H](NC(=O)[C@@H]1[C@H]2CCC[C@H]2CN1C(=O)c1nc2c(Cl)ccc(Cl)c2[nH]1)C(=O)CO` [Compound 139, (1S,3aR,6aS)-2-(4,7-dichloro-1H-1,3-benzodiazole-2-carbonyl)-N-[(2S)-4-hydroxy-3-oxo-1-[(3S)-2-oxopyrrolidin-3-yl]butan-2-yl]-hexahydro-1H-cyclopenta[c]pyrrole-1-carboxamide], the 50% effective concentration (EC50) in data set [1] is 0.1 to 1 µM; in [5] (class symbols), less than 1 µM; in data set [8], less than 1 µM. Besides, the IC50 in [2] (setting [11]) is less than 0.02 µM; in data set [3] (HRV IC50, HRV3C, bound), greater than 10 µM; in data set [7] it was no less than 10 µM. Besides, the CC50 in data set [4] (numeric bounds) and in data set [6] was greater than 50 µM throughout. Further, the CC50 at 6 days in data set [9] was greater than 10 µM.

For the molecule `O=C(NC1CC1)C(=O)[C@H](C[C@@H]1CCNC1=O)NC(=O)[C@@H]1CC2(CCN1C(=O)c1cc3ccccc3[nH]1)CC2` [Compound 140, (S)—N—((S)-4-(cyclopropylamino)-3,4-dioxo-1-((S)-2-oxopyrrolidin-3-yl)butan-2-yl)-6-(1H-indole-2-carbonyl)-6-azaspiro[2.5] octane-5-carboxamide], the EC50 in data set [1] lay within 0.1 to 1 µM; in data set [5] (class symbols), 1 to 10 µM; in [8], 1 to 10 µM. Moreover, the IC50 was 0.02 to 0.2 µM in [2] (setting [11]); 2 to 20 µM in data set [3] (HRV IC50, HRV3C, class symbols); no less than 10 µM in data set [7]. The CC50 in data set [4] (numeric bounds) is greater than 50 µM; in data set [6], greater than 10 µM. Further, the CC50 at 6 days in data set [9] is greater than 10 µM.

Consider `O=C(NC1CC1)C(=O)[C@H](C[C@@H]1CCNC1=O)NC(=O)[C@@H]1CC2(CCN1C(=O)c1cc3c(Cl)cc(Cl)cc3[nH]1)CC2` [Compound 141], for which the concentration giving a half-maximal response (EC50) is 0.1 to 1 µM in data set [1] (setting [10]), greater than 50 µM in data set [5] (numeric bounds) and greater than 50 µM in data set [8]. In addition, the half-maximal inhibitory concentration (IC50) in data set [2] (setting [11]) was 0.02 to 0.2 µM; in data set [3] (setting [12]), 2 to 20 µM; in data set [7] it was 0.1 to 1 µM. Besides, the CC50 in data set [4] (numeric bounds) is greater than 50 µM; in data set [6], greater than 10 µM. The molecule also came in with a CC50 at 6 days in [9] greater than 10 µM.

For the molecule `COc1cccc2[nH]c(C(=O)N3C[C@@H]4CCC[C@@H]4[C@H]3C(=O)N[C@H](C=O)CC3CCNS3(=O)=O)cc12` (stereo partly drawn) [Compound 142, (1S,3aR,6aS)—N-((2S)-1-(1,1-dioxidoisothiazolidin-5-yl)-3-oxopropan-2-yl)-2-(4-methoxy-1H-indole-2-carbonyl)octahydrocyclopenta[c]pyrrole-1-carboxamide], the concentration giving a half-maximal response (EC50) in [1] (OC43 in HeLa cells, 6 days at 33° C., bound, read-out: EC50) is greater than 10 µM; in [5] (numeric bounds), greater than 10 µM; in data set [8], greater than 50 µM. Also, the 50% inhibitory concentration (IC50) in [2] (setting [11]) was 0.2 to 2 µM; in data set [3] (HRV IC50, HRV3C, bound), greater than 10 µM; in data set [7], no less than 10 µM. The CC50 was greater than 50 µM in [4] (numeric bounds) and greater than 10 µM in data set [6]. Also, the CC50 at 6 days in data set [9] was greater than 10 µM.
